Our source for the melting point and Ki values is patent US6815456B2, “Heterocyclyloxy-, -thioxy- and -aminobenzazole derivatives as 5-hydroxytryptamine-6 ligands” (Wyeth, priority 2001, dated 2004).

Structures are written as SMILES. Counter-ions that a name gives are not always drawn.

The target in data set [1] is T1, human cloned 5-HT6 receptors (Homo sapiens, UniProt P50406).
T1 construct: expressed in transfected cells; host or cells: HeLa cells
The data set is described as follows: 5-HT6 binding affinity, [3H]-LSD displacement on membranes of Hela cells expressing human cloned 5-HT6 receptors. The settings on record: [3H]-LSD 3.0 nM, Hela cell membranes, 120 min at room temperature. The protocol:
The affinity of test compounds for the serotonin 5-HT6 receptor is evaluated in the following manner. Cultured Hela cells expressing human cloned 5-HT6 receptors are harvested and centrifuged at low speed (1,000×g) for 10.0 min to remove the culture media. The harvested cells are suspended in half volume of fresh physiological phosphate buffered saline solution and recentrifuged at the same speed. This operation is repeated. The collected cells are then homogenized in ten volumes of 50 mM Tris.HCl (pH 7.4) and 0.5 mM EDTA. The homogenate is centrifuged at 40,000×g for 30.0 min and the precipitate is collected. The obtained pellet is resuspended in 10 volumes of Tris.HCl buffer and recentrifuged at the same speed. The final pellet is suspended in a small volume of Tris.HCl buffer and the tissue protein content is determined in aliquots of 10-25 μl volumes. Bovine Serum Albumin is used as the standard in the protein determination according to the method described in Lowry et al., J. Biol. Chem., 193:265 (1951). The volume of the suspended cell membranes is adjusted to give a tissue protein concentration of 1.0 mg/ml of suspension. The prepared membrane suspension (10 times concentrated) is aliquoted in 1.0 ml volumes and stored at −70° C. until used in subsequent binding experiments.
Binding experiments are performed in a 96 well microtiter plate format, in a total volume of 200 μl. […] The test compounds are added in 20.0 μl volume.
The reaction is allowed to proceed in the dark for 120 min at room temperature, at which time, the bound ligand-receptor complex is filtered off on a 96 well unifilter with a Packard Filtermate® 196 Harvester. The bound complex caught on the filter disk is allowed to air dry and the radioactivity is measured in a Packard TopCount® equipped with six photomultiplier detectors, after the addition of 40.0 μl Microscint®-20 scintillant to each shallow well. The unifilter plate is heat-sealed and counted in a PackardTopCount® with a tritium efficiency of 31.0%.
Binding in the presence of varying concentrations of test compound is expressed as a percentage of specific binding in the absence of test compound. The results are plotted as log % bound versus log concentration of test compound. […] A linear regression line of data points is plotted, from which the IC50 value is determined and the Ki value is determined based upon the following equation: […]
where L is the concentration of the radioactive ligand used and KD is the dissociation constant of the ligand for the receptor, both expressed in nM.

T1 sequence (P50406 whole entry): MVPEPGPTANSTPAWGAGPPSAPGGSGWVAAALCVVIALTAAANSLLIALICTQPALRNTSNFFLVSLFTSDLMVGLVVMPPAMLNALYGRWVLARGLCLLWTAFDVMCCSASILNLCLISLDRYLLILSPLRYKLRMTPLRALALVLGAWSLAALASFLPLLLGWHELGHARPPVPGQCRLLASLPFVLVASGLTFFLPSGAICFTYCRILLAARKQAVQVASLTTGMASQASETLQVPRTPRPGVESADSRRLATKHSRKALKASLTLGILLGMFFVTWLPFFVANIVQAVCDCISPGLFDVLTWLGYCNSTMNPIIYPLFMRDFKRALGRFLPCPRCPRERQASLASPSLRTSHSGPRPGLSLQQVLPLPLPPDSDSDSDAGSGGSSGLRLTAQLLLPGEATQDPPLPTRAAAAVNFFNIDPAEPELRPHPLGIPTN

The melting point is the temperature of the solid-liquid transition. Compound `O=S(=O)(c1cccc2cccnc12)n1ncc2c(OC3CCNC3)cccc21` (stereo not shown) (as salt: trifluoroacetic acid salt) [Example 22, 8-{[4-(3-pyrrolidinyloxy)-1H-indazol-1-yl]sulfonyl}quinoline] registered a melting point of 79 °C.

The term Ki denotes a dissociation constant, usually derived from enzyme kinetics or from competition with a known ligand. Regarding `O=S(=O)(c1ccccc1F)n1ncc2c(OC3CCNC3)cccc21` (stereo not shown) [Example 17, 1-[(2-fluorophenyl)sulfonyl]-4-(3-pyrrolidinyloxy)-1H-indazole], the inhibition constant (Ki) in data set [1] was determined as 0.025 µM. That is a double-digit nanomolar value. Turning to `Nc1ccc(S(=O)(=O)n2ccc3c(OC4CCNCC4)cccc32)cc1` (as salt: hydrochloride) [Example 8, 4-{[4-(piperidin-4-yloxy)-1H-indol-1-yl]sulfonyl}aniline], the melting point is 117 to 119 °C.

In the case of `Nc1ccc(S(=O)(=O)n2ccc3c(OC4CCNCC4)cccc32)cc1` [Example 8, 4-{[4-(piperidin-4-yloxy)-1H-indol-1-yl]sulfonyl}aniline], the affinity in data set [1], expressed as Ki, was 0.003 µM. This lies in the single-digit nanomolar range. In turn, `O=S(=O)(c1ccccc1F)n1ncc2c(OC3CCNC3)cccc21` (stereo not shown) (as salt: trifluoroacetic acid salt) [Example 17, 1-[(2-fluorophenyl)sulfonyl]-4-(3-pyrrolidinyloxy)-1H-indazole] had a melting point of 162 to 163 °C. On to `O=S(=O)(c1cccc2ccccc12)n1ncc2c(OC3CCNC3)cccc21` (stereo not shown) (as salt: trifluoroacetic acid salt) [Example 15, 1-(1-naphthylsulfonyl)-4-(3-pyrrolidinyloxy)-1H-indazole], for which the melting point was 200 to 201 °C. In turn, `Nc1ccc(S(=O)(=O)n2ccc3c(OC4CCNC4)cccc32)cc1` (stereo not shown) [Example 5, 4-{[4-(3-pyrrolidinyloxy)-1H-indol-1-yl]sulfonyl}aniline] showed a Ki in data set [1] of 0.005 µM. As to `O=S(=O)(c1ccc(Cl)s1)n1ncc2c(OC3CCNC3)cccc21` (stereo not shown) (as salt: trifluoroacetic acid salt) [Example 19, 1-[(5-Chlorothien-2-yl)sulfonyl]-4-(3-pyrrolidinyloxy)-1H-indazole], the melting point fell in the range of 102 to 103 °C. As for `O=S(=O)(c1cccc2ccccc12)n1ncc2c(OC3CCNC3)cccc21` (stereo not shown) [Example 15, 1-(1-naphthylsulfonyl)-4-(3-pyrrolidinyloxy)-1H-indazole], the Ki in data set [1] was found to be 0.003 µM. That is a single-digit nanomolar value.

`COc1ccc(S(=O)(=O)n2ncc3c(OC4CCNC4)cccc32)cc1OC` (stereo not shown) [Example 18] came in with an inhibitory constant (Ki) in data set [1] of 0.075 µM. `O=S(=O)(c1ccccc1)n1ccc2c(OC3CCNC3)cccc21` (stereo not shown) [Example 3, 1-(Phenylsulfonyl)-4-(3-pyrrolidinyloxy)-1H-indole Hydrochloride] registered a Ki in data set [1] of 0.008 µM. On to `O=S(=O)(c1cccc2ccccc12)n1ccc2c(OC3CCNC3)cccc21` (stereo not shown) [Example 6, 1-(1-naphthylsulfonyl)-4-(3-pyrrolidinyloxy)-1H-indole], for which affinity in data set [1] was put at a Ki of 0.013 µM. In turn, `O=S(=O)(c1ccccc1Cl)n1ncc2c(OC3CCNC3)cccc21` (stereo not shown) (as salt: trifluoroacetic acid salt) [Example 16, 1-[(2-Chlorophenyl)sulfonyl]-4-(3-pyrrolidinyloxy)-1H-indazole] registered a melting point of 161 to 163 °C. For the compound `Nc1ccc(S(=O)(=O)n2ccc3c(OC4CCCNC4)cccc32)cc1` (stereo not shown) (as salt: hydrochloride) [Example 9, 4-{[4-(piperidin-3-yloxy)-1H-indol-1-yl]sulfonyl}aniline], the melting point is 160 °C (dec.).

On to `O=S(=O)(c1cccs1)n1ccc2c(OC3CCNC3)cccc21` (stereo not shown) [Example 4, 4-(3-pyrrolidinyloxy)1-(thien-2-ylsulfonyl)-1H-indole], for which affinity in data set [1] was put at a Ki of 0.025 µM. `Nc1ccc(S(=O)(=O)n2ccc3c(OC4CCCNC4)cccc32)cc1` (stereo not shown) [Example 9, 4-{[4-(piperidin-3-yloxy)-1H-indol-1-yl]sulfonyl}aniline] yielded a Ki in data set [1] of 0.011 µM. `CC(=O)Nc1ccc(S(=O)(=O)n2ncc3c(OC4CCNC4)cccc32)cc1Cl` (stereo not shown) (as salt: trifluoroacetic acid salt) [Example 20, N-(2-Chloro-4-{[4-(3-pyrrolidinyloxy)-1H-indazol-1-yl]sulfonyl}phenyl)acetamide] displayed a melting point of 68 to 72 °C. Take `Cc1nn(C)c(Cl)c1S(=O)(=O)n1ccc2c(OC3CCNC3)cccc21` (stereo not shown) (as salt: hydrochloride) [Example 7, 1-[(5-Chloro-1,3-dimethyl-1H-pyrazol-4-yl)sulfonyl]-4-(3-pyrrolidinyloxy)-1H-indole]: the melting point is 100 °C (dec.). Take `O=S(=O)(c1ccccc1)n1ncc2c(OC3CCNC3)cccc21` (stereo not shown) [Example 14, 1-(Phenylsulfonyl)-4-(pyrrolidin-3-yloxy)-1H-indazole, trifluoroacetic acid salt]: the inhibition constant Ki in data set [1] turned out to be 0.019 µM. The compound `O=S(=O)(c1ccc(Cl)s1)n1ncc2c(OC3CCNC3)cccc21` (stereo not shown) [Example 19, 1-[(5-Chlorothien-2-yl)sulfonyl]-4-(3-pyrrolidinyloxy)-1H-indazole] returned a Ki in data set [1] of 0.009 µM. In data set [1], `CC(=O)Nc1ccc(S(=O)(=O)n2ncc3c(OC4CCNC4)cccc32)cc1Cl` (stereo not shown) [Example 20, N-(2-Chloro-4-{[4-(3-pyrrolidinyloxy)-1H-indazol-1-yl]sulfonyl}phenyl)acetamide] came in with an inhibitory constant (Ki) of 0.012 µM.

`O=S(=O)(c1ccccc1Cl)n1ncc2c(OC3CCNC3)cccc21` (stereo not shown) [Example 16, 1-[(2-Chlorophenyl)sulfonyl]-4-(3-pyrrolidinyloxy)-1H-indazole] gave a Ki in data set [1] of 0.019 µM. In data set [1], `O=S(=O)(c1cccc2cccnc12)n1ncc2c(OC3CCNC3)cccc21` (stereo not shown) [Example 22, 8-{[4-(3-pyrrolidinyloxy)-1H-indazol-1-yl]sulfonyl}quinoline] gave a Ki of 0.022 µM. Turning to `CC(=O)Nc1ccc(S(=O)(=O)n2ncc3c(OC4CCNC4)cccc32)cc1` (stereo not shown) [Example 21], the affinity in data set [1], expressed as Ki, was 0.124 µM.

On to `O=S(=O)(c1cccc2ccccc12)n1ccc2c(OC3CCNC3)cccc21` (stereo not shown) (as salt: hydrochloride) [Example 6, 1-(1-naphthylsulfonyl)-4-(3-pyrrolidinyloxy)-1H-indole], for which the melting point is 179 °C (dec.).
